Measurements: patent US12077503B2, “Substituted cyclic amides and their use as herbicides” (FMC CORPORATION, priority 2015, dated 2024)

How the values were obtained:
Format in all cases: in vivo
[1] = tested on: blackgrass (Alopecurus myosuroides); assay: Test A postemergence; details: Alopecurus myosuroides, post-emergence, 240 h, read-out: Plant response rating, Blackgrass
How it was run: (§1)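 Ratings of 0 (no effect) to 100 (complete control) come from visual comparison with untreated controls roughly 10 d after treatment. Test chemicals, formulated in a non-phytotoxic solvent mixture with surfactant, were applied either as a preemergence directed soil spray on seeded soil or postemergence to one- to two-leaf plants 2 to 10 cm tall.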

[2] = tested on: pigweed (Amaranthus retroflexus); assay: Test A postemergence; details: Amaranthus retroflexus, post-emergence, 240 h, postemergence, approx. 10 d
How it was run: as §1

[3] = tested on: Kochia (Kochia scoparia); assay: Test A postemergence; details: Bassia scoparia, post-emergence, 240 h, postemergence, approx. 10 d
How it was run: as §1

[4] = tested on: Galium (catchweed bedstraw, Galium aparine); assay: Test A postemergence; details: Galium, post-emergence, 240 h, postemergence, approx. 10 d
How it was run: as §1

[5] = tested on: corn (Zea mays); assay: Test A postemergence; details: Zea mays, post-emergence, 240 h
How it was run: as §1

[6] = tested on: wheat (Triticum aestivum); assay: Test A postemergence; details: Triticum aestivum, post-emergence, 240 h, postemergence, approx. 10 d
How it was run: as §1

[7] = tested on: giant foxtail (Setaria faberii); assay: Test A postemergence; details: Setaria faberi, post-emergence, 240 h, postemergence, approx. 10 d
How it was run: as §1

[8] = tested on: barnyardgrass (Echinochloa crus-galli); assay: Test A postemergence; details: Echinochloa crus-galli, post-emergence, 240 h, read-out: Plant response rating, Barnyardgrass
How it was run: as §1

[9] = tested on: ryegrass, Italian (Italian ryegrass, Lolium multiflorum); assay: Test A postemergence; details: Lolium multiflorum, post-emergence, 240 h, postemergence, approx. 10 d
How it was run: as §1

[10] = tested on: ragweed (common ragweed, Ambrosia elatior); assay: Test A postemergence; details: Ambrosia artemisiifolia, post-emergence, 240 h, postemergence, approx. 10 d
How it was run: as §1

[11] = tested on: giant foxtail (Setaria faberii); assay: Test A preemergence; details: Setaria faberi, pre-emergence, 240 h
How it was run: as §1

[12] = tested on: rice (Oryra sativa); assay: Test B flooded paddy test; details: Oryza sativa, 250 g ai/ha, Flood; 0 to 100 scale where 0 is no effect and 100 is complete control; read-out: Rice plant response rating
How it was run: (§2)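 Compound goes directly into floodwater once pots are flooded 3 cm above soil, targeting plants at two leaves; the water depth is then held for the test duration. Plants sit 13–15 d in a greenhouse and are rated visually, 100 denoting complete control.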

[13] = tested on: ducksalad (Heteranthera limosa); assay: Test B flooded paddy test; details: Heteranthera limosa, 250 g ai/ha, Flood; 0 to 100 scale where 0 is no effect and 100 is complete control; read-out: Ducksalad plant response rating
How it was run: as §2

[14] = tested on: barnyardgrass (Echinochloa crus-galli); assay: Test B flooded paddy test; details: Echinochloa crus-galli, 250 g ai/ha, Flood; 0 to 100 scale where 0 is no effect and 100 is complete control; read-out: Barnyardgrass plant response rating
How it was run: as §2

[15] = tested on: sedge, umbrella (small-flower umbrella sedge, Cyperus difformis); assay: Test B flooded paddy test; details: Cyperus difformis, 250 g ai/ha, Flood; 0 to 100 scale where 0 is no effect and 100 is complete control; read-out: Sedge, Umbrella plant response rating
How it was run: as §2

[16] = 125 g ai/ha, Postemergence, visual injury after approximately 10 d, 0 to 100 scale where 0 is no effect and 100 is complete control
[17] = 500 g ai/ha, postemergence, visual injury, 0 to 100 scale (0 no effect, 100 complete control), approx. 10 d

Q: Which results are given for `Cc1ccc([C@H]2CNC(=O)[C@@H]2C(=O)Nc2cccc(F)c2C)cc1C` [Compound 1035]?
A: pest or weed control at 125 g/ha [1, 16]: 40%; pest or weed control at 500 g/ha [1, 17]: 60%; pest or weed control at 125 g/ha ([2]; 125 g ai/ha, visual injury on 0 to 100 scale (0 no effect, 100 complete control), read-out: Pigweed plant response rating): 0%; pest or weed control at 500 g/ha ([2]; 500 g ai/ha, visual injury, 0 to 100 scale (0 no effect, 100 complete control), read-out: Plant response rating, Pigweed): 0%; pest or weed control at 125 g/ha ([3]; 125 g ai/ha, visual injury on 0 to 100 scale (0 no effect, 100 complete control), read-out: Kochia plant response rating): 0%; pest or weed control at 500 g/ha ([3]; 500 g ai/ha, visual injury, 0 to 100 scale (0 no effect, 100 complete control), read-out: Plant response rating, Kochia): 20%; pest or weed control at 125 g/ha ([4]; 125 g ai/ha, visual injury on 0 to 100 scale (0 no effect, 100 complete control), read-out: Galium plant response rating): 20%; pest or weed control at 500 g/ha ([4]; 500 g ai/ha, visual injury, 0 to 100 scale (0 no effect, 100 complete control), read-out: Plant response rating, Galium): 50%; Corn plant response rating (crop injury, 0 = no effect, 100 = complete kill) at 125 g/ha [5, 16]: 50%; Corn plant response rating (crop injury, 0 = no effect, 100 = complete kill) at 500 g/ha [5, 17]: 60%; plant injury at 125 g/ha ([6]; 125 g ai/ha, visual injury on 0 to 100 scale (0 no effect, 100 complete control), read-out: Wheat plant response rating): 20%; plant injury at 500 g/ha ([6]; 500 g ai/ha, visual injury, 0 to 100 scale (0 no effect, 100 complete control), read-out: Plant response rating, Wheat): 70%; pest or weed control at 125 g/ha ([7]; 125 g ai/ha, visual injury on 0 to 100 scale (0 no effect, 100 complete control), read-out: Foxtail, Giant plant response rating): 50%; pest or weed control at 500 g/ha ([7]; 500 g ai/ha, visual injury, 0 to 100 scale (0 no effect, 100 complete control), read-out: Plant response rating, Foxtail, Giant): 90%; pest or weed control at 125 g/ha [8, 16]: 90%; pest or weed control at 500 g/ha [8, 17]: 90%; pest or weed control at 125 g/ha ([9]; 125 g ai/ha, visual injury on 0 to 100 scale (0 no effect, 100 complete control), read-out: Ryegrass, Italian plant response rating): 40%; pest or weed control at 500 g/ha ([9]; 500 g ai/ha, visual injury, 0 to 100 scale (0 no effect, 100 complete control), read-out: Plant response rating, Ryegrass, Italian): 60%; pest or weed control at 125 g/ha ([10]; 125 g ai/ha, visual injury on 0 to 100 scale (0 no effect, 100 complete control), read-out: Ragweed plant response rating): 0%; pest or weed control at 500 g/ha ([10]; 500 g ai/ha, visual injury, 0 to 100 scale (0 no effect, 100 complete control), read-out: Plant response rating, Ragweed): 0%; pest or weed control at 125 g/ha ([11]; 125 g ai/ha, Preemergence, visual injury rating after approximately 10 d, read-out: Foxtail, Giant plant response rating (0 to 100 scale, 0 is no effect, 100 is complete control)): 90%; pest or weed control at 500 g/ha ([11]; 500 g ai/ha, preemergence, visual injury rating about 10 d after treatment, 0 to 100 scale (0 no effect, 100 complete control), read-out: Foxtail, Giant plant response rating): 90%; pest or weed control at 250 g/ha [12]: 0%; pest or weed control at 250 g/ha [13]: 100%; pest or weed control at 250 g/ha [14]: 50%; pest or weed control at 250 g/ha [15]: 0%
